This passage reports AC50, EC50 and IC50 results from ChEMBL document CHEMBL1201862, “PubChem BioAssay data set” (2004).

Broadly, the AC50 is the midpoint of the concentration-response curve, whichever way the signal moves. One may read the EC50 as the concentration needed to bring the measured effect to its halfway point. What is called IC50 is the concentration that inhibits the measured activity by half.

Test [1] addresses T1, Histone-lysine N-methyltransferase NSD2 (Homo sapiens, UniProt O96028).
T1 sequence (O96028 whole entry): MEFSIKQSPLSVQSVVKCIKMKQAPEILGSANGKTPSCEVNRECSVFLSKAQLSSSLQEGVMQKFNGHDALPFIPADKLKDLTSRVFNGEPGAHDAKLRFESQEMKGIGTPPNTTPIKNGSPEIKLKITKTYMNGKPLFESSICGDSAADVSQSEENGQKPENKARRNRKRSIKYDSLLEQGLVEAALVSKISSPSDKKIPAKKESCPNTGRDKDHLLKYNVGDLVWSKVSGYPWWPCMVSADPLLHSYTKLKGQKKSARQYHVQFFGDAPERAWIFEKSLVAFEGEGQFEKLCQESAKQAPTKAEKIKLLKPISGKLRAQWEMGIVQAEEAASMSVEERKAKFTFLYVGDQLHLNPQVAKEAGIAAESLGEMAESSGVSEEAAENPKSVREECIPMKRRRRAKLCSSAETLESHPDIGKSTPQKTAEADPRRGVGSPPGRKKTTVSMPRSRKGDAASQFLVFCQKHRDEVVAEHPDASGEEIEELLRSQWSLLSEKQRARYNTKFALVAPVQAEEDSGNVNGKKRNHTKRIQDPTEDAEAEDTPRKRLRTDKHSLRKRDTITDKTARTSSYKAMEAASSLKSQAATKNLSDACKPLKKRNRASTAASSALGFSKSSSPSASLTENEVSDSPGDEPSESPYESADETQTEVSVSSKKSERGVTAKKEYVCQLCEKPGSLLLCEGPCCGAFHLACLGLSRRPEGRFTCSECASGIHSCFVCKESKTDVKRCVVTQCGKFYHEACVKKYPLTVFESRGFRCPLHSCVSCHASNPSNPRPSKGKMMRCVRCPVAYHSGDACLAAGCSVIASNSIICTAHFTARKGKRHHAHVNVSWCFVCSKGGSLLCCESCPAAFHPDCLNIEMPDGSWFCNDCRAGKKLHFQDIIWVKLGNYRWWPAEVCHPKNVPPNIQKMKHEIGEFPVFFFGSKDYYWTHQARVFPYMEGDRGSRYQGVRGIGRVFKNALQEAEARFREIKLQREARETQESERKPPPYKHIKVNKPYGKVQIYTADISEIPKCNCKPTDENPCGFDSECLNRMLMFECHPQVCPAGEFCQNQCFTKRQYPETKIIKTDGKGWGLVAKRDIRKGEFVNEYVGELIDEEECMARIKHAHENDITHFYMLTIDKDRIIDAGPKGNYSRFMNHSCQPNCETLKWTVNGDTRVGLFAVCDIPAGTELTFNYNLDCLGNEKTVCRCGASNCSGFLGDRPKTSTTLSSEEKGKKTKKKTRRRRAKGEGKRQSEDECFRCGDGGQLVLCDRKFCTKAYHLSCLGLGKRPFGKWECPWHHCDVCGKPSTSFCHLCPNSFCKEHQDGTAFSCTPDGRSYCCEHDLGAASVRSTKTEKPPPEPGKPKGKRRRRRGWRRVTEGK
The test is classed as biochemical.

Test [2] in a line: viability of PTEN-deleted HCT116 cells – cell-based, HCT116 PTEN knockout, dose response (AID 1047).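 Also: HCT116 colon tumor cells with PTEN knocked out; cells exposed to compound for 60 hours before readout; potency for loss of cell viability measured by luminescence.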 The test is classed as functional.
The target of test [3] is Serine/threonine-protein phosphatase (Homo sapiens, UniProt Q9BPW0). As to the kind of experiment: inhibition of protein phosphatase 5 activity – biochemical, fluorescence, dose response (AID 2395).
Serine/threonine-protein phosphatase, sequence (Q9BPW0 whole entry): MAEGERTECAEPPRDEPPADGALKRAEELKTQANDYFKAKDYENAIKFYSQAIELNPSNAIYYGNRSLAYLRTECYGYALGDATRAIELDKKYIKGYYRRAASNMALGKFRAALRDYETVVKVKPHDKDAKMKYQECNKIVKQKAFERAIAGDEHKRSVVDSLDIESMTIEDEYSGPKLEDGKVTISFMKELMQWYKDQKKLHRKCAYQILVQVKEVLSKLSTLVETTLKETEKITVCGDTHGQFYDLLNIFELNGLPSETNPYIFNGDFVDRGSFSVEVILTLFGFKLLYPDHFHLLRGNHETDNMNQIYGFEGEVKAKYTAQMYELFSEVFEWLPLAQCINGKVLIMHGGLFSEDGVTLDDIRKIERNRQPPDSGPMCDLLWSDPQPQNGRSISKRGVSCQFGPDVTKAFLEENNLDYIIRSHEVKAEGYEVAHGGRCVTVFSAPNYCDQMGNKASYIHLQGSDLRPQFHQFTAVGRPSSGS
Test [4] has as its target T2, Apoptotic protease-activating factor 1 (Homo sapiens, UniProt O14727).
T2 sequence (O14727 whole entry): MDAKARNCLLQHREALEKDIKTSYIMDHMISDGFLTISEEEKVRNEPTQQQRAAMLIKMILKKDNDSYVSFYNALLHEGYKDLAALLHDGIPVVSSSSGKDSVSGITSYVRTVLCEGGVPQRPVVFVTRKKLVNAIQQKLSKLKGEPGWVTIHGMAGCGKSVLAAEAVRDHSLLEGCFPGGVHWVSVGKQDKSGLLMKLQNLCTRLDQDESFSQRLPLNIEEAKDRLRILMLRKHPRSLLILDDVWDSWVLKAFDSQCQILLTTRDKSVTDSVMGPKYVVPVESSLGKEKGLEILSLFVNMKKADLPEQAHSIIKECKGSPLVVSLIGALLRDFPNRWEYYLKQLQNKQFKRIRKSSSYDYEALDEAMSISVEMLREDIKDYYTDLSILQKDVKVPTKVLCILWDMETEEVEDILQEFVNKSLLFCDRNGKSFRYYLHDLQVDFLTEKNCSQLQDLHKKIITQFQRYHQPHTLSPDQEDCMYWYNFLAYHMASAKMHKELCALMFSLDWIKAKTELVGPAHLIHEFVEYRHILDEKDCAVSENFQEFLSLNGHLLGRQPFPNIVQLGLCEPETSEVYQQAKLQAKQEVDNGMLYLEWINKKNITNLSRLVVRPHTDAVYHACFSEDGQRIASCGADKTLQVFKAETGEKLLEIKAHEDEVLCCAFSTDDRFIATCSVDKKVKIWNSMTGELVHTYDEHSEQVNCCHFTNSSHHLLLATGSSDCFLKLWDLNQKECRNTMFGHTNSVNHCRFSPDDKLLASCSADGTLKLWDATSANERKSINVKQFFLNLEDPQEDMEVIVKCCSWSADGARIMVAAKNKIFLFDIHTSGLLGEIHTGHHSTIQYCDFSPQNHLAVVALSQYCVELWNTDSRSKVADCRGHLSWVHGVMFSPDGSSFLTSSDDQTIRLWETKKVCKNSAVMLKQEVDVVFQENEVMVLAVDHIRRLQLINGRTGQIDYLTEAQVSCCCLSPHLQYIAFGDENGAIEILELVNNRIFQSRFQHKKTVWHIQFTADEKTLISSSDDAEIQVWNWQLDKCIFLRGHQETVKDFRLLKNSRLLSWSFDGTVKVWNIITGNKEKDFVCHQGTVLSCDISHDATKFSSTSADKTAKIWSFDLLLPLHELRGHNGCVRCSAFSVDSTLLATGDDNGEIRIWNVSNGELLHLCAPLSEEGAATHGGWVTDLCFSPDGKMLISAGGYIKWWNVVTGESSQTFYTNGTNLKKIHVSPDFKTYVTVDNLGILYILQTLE
The test is classed as functional.

Test [5] has as its target T3, Sentrin-specific protease 8 (Homo sapiens, UniProt Q96LD8).
T3 sequence (Q96LD8 whole entry): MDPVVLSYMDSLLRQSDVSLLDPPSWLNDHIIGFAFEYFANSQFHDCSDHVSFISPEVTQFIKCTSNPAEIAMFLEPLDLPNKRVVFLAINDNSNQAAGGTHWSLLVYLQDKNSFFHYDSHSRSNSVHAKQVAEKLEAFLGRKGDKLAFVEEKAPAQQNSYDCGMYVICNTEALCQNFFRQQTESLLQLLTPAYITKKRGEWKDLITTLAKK
As to the kind of experiment: inhibition of human SENP8 cleavage activity – biochemical, luminescence, SAR follow-up (AID 504501). The test is classed as functional.

Calls of active or inactive are those of the source. Some results are limits rather than exact numbers.

As to `CCOC(=O)C1=C(COC(=O)c2ccc([N+](=O)[O-])s2)NC(=O)NC1C` (stereo not given), the AC50 in test [1] was 5.86 µM (active).

For `Oc1cccc(/C=N/Nc2cc(N3CCCC3)nc(N3CCCC3)n2)c1`, in test [2], the EC50 is 20.3 µM (active). In addition, the half-maximal inhibitory concentration (IC50) in test [3] is 5.83 µM (active); in test [4] it was 1.84 µM (active); in test [5] it was > 99 µM (inactive).
